Series [1] can be described thus: Chemical stability in PBS buffer solution (pH 7.4). It counts as physicochemical. The following applies: 37° C., read-out: Chemical stability t1/2. How it is done: The compounds of the present invention (A-15, A-16, A-19, A-21 to A-25, A-28, A-29, A-36 and A-69) were each dissolved in DMSO to a concentration of 10 mM and then mixed with a PBS buffer solution (pH 7.4) to prepare as a solution having a concentration of 500 μM (5% DMSO). MPS, used as a standard material, was also prepared as a solution having a concentration of 500 μM in a PBS buffer solution. 420 μL of a PBS buffer solution and […] of each of 500 μM compounds of the present invention and MPS were mixed to prepare a total of 700 μL of reaction solution. The reaction of the mixed solution was initiated in a constant temperature incubator at 37° C. The reaction solution was aliquoted in an amount of 70 μL at 0 minutes before the reaction and at certain times after the reaction, and the remaining compounds of the present invention or MPS or the liberated MMAF or MMAE were quantitatively analyzed using the HPLC method. […] In addition, the remaining amount of Compound A-69 in a PBS buffer solution (pH 7.4) according to the incubation time is shown in FIG. 5.

Series [2] in a line: Mouse plasma stability (Method 1). Type of series: in vitro ADME. To be noted: Method 1 (mouse plasma), 37° C.; read-out: Plasma stability t1/2. How it is done:
Method 1: Mouse Plasma Stability
(§1) The compounds of the present invention (A-16, A-22, A-25, A-36, A-69) and MPS, used as a standard material, were each dissolved in DMSO and a PBS buffer solution to a concentration of 30 mM, and then mixed in mouse plasma (Biochemed, 029-APSC-PMG) to a final concentration of 300 μM (final 1.0% DMSO) and 600 μM of the compounds and MPS, respectively. The reaction of the mixed solution in plasma was initiated in a constant temperature incubator at 37° C. Before the reaction and on certain days after the reaction, the above samples were aliquoted in an amount of 100 μL, and 200 μL of acetonitrile (ACN, Sigma, SA-271004-1L) was added to terminate the reaction, mixed, and then vortexed for about 1 minute, and then centrifuged (Beckman, B30150) at 4° C. for 15 minutes at 14,000 rpm to precipitate plasma proteins. Each supernatant obtained by centrifugation was collected and quantitatively analyzed using the HPLC method.
(§2) The results of measuring the plasma half-life of the compounds of the present invention using Methods 1 to 4 above are shown in Table 3.

Series [3] in a line: Human plasma stability (Method 2). It counts as in vitro ADME. To be noted: Method 2 (human plasma), 37° C.; read-out: Plasma stability t1/2. How it is done:
Method 2: Human Plasma Stability
as §1, with “(A-19,” for “(A-16,”, “human” for “mouse”, “752PR-SC-PMG)” for “029-APSC-PMG)”, “ACN” for “acetonitrile (ACN, Sigma, SA-271004-1L)”, “centrifuged” for “centrifuged (Beckman, B30150)”
as §2

The nature of series [4]: Beagle dog plasma stability (Method 4). Type of series: in vitro ADME. To be noted: Method 4 (beagle dog plasma), 37° C.; read-out: Plasma stability t1/2. How it is done:
Method 4: Beagle Dog Plasma Stability
as §1, with “(A-22,” for “(A-16, A-22, A-25, A-36,”, “beagle dog” for “mouse”, “014-APSC-PMG)” for “029-APSC-PMG)”, “ACN” for “acetonitrile (ACN, Sigma, SA-271004-1L)”, “centrifuged” for “centrifuged (Beckman, B30150)”
as §2

The nature of series [5]: Rat plasma stability (Method 3). Type of series: in vitro ADME. The following applies: Method 3 (rat plasma), 37° C.; read-out: Plasma stability t1/2. As to the method:
Method 3: Rat Plasma Stability
as §1, with “(A-22,” for “(A-16, A-22, A-25, A-36,”, “rat” for “mouse”, “031-APSC-PMG)” for “029-APSC-PMG)”, “ACN” for “acetonitrile (ACN, Sigma, SA-271004-1L)”, “centrifuged” for “centrifuged (Beckman, B30150)”
as §2

Molecules are shown by their SMILES. Numbered stars: 1 amine (or outer) side, 2 acyl side, 3 side chain; on linkers, the order of the positions; unused ones are H or OH. Square brackets hold non-standard residues; d marks the D form. Peptide text beside a SMILES is read from it. * marks the point of attachment. ξ: configuration not given here. X1 = O=C(O)CCCc1cc2c(O[C@@H]3O[C@H](CO)[C@H](O)[C@H](O)[C@H]3O)ccc(COC(=O)*)c2o1; X3 = O=C(O)c1cc2c(O[C@@H]3O[C@H](CO)[C@H](O)[C@H](O)[C@H]3O)ccc(COC(=O)*)c2[se]1; X2 = O=C(O)CCc1cc2c(O[C@@H]3O[C@H](CO)[C@H](O)[C@H](O)[C@H]3O)ccc(COC(=O)*)c2s1; X4 = O=C(O)c1cc2c(O[C@@H]3O[C@H](CO)[C@H](O)[C@H](O)[C@H]3O)ccc(COC(=O)*)c2o1; Dil(5ξ) = CCC(C)[C@@H]([C@@H](CC(=O)[*:2])OC)N(C)[*:1]; Dolaproine = CO[C@@H]([C@@H]1CCCN1)[C@@H](C)C(=O)O; NMeV = CN[C@H](C(=O)O)C(C)C; ξF = NC(Cc1ccccc1)C(=O)O

Regarding `CCC(C)[C@@H]([C@@H](CC(=O)N1CCC[C@H]1[C@H](OC)[C@@H](C)C(=O)NC(Cc1ccccc1)C(=O)O)OC)N(C)C(=O)[C@@H](NC(=O)[C@H](C(C)C)N(C)C(=O)OCc1ccc(O[C@@H]2O[C@H](CO)[C@H](O)[C@H](O)[C@H]2O)c2cc(CCC(=O)NCCOCCOCCOCCN=[N+]=[N-])sc12)C(C)C` (some centres unmarked) [Compound A-15], the half-life at 100 µM in series [1] is above 168 h.

Consider `CCC(C)[C@@H]([C@@H](CC(=O)N1CCC[C@H]1[C@H](OC)[C@@H](C)C(=O)NC(Cc1ccccc1)C(=O)O)OC)N(C)C(=O)[C@@H](NC(=O)[C@H](C(C)C)N(C)C(=O)OCc1ccc(O[C@@H]2O[C@H](CO)[C@H](O)[C@H](O)[C@H]2O)c2cc(CCC(=O)O)sc12)C(C)C` (some centres unmarked) [Compound A-16] (X2-[NMeV]V[Dil(5ξ)][Dolaproine][ξF]-OH), for which the half-life at 100 µM in series [1] is above 168 h. The half-life at 300 µM in series [2] is above 168 h.

For `CCC(C)[C@@H]([C@@H](CC(=O)N1CCC[C@H]1[C@H](OC)[C@@H](C)C(=O)NC(Cc1ccccc1)C(=O)O)OC)N(C)C(=O)[C@@H](NC(=O)[C@H](C(C)C)N(C)C(=O)OCc1ccc(O[C@@H]2O[C@H](CO)[C@H](O)[C@H](O)[C@H]2O)c2cc(Cn3cc(COCCOCCOCCOC)nn3)sc12)C(C)C` (some centres unmarked) [Compound A-19], in series [1], the half-life at 100 µM was above 168 h. The half-life at 300 µM in series [3] was above 168 h.

`C#CCOCCOCCOCCOCC(=O)NCc1cc2c(O[C@@H]3O[C@H](CO)[C@H](O)[C@H](O)[C@H]3O)ccc(COC(=O)N(C)[C@H](C(=O)N[C@H](C(=O)N(C)[C@@H](C(C)CC)[C@@H](CC(=O)N3CCC[C@H]3[C@H](OC)[C@@H](C)C(=O)NC(Cc3ccccc3)C(=O)O)OC)C(C)C)C(C)C)c2s1` (some centres unmarked) [Compound A-21]: in series [1], the half-life at 100 µM was above 168 h.

Turning to `CCC(C)[C@@H]([C@@H](CC(=O)N1CCC[C@H]1[C@H](OC)[C@@H](C)C(=O)NC(Cc1ccccc1)C(=O)O)OC)N(C)C(=O)[C@@H](NC(=O)[C@H](C(C)C)N(C)C(=O)OCc1ccc(O[C@@H]2O[C@H](CO)[C@H](O)[C@H](O)[C@H]2O)c2cc(CCCC(=O)O)oc12)C(C)C` (some centres unmarked) [Compound A-22] (X1-[NMeV]V[Dil(5ξ)][Dolaproine][ξF]-OH), the half-life at 100 µM in series [1] was above 168 h. The half-life at 300 µM in series [2], in series [4], in series [3] and in series [5] was above 168 h throughout.

Turning to `CCC(C)[C@@H]([C@@H](CC(=O)N1CCC[C@H]1[C@H](OC)[C@@H](C)C(=O)NC(Cc1ccccc1)C(=O)O)OC)N(C)C(=O)[C@@H](NC(=O)[C@H](C(C)C)N(C)C(=O)OCc1ccc(O[C@@H]2O[C@H](CO)[C@H](O)[C@H](O)[C@H]2O)c2cc(CCCC(=O)NCCOCCOCCOCCN=[N+]=[N-])oc12)C(C)C` (some centres unmarked) [Compound A-23], the half-life at 100 µM in series [1] is above 168 h.

For the compound `CCC(C)[C@@H]([C@@H](CC(=O)N1CCC[C@H]1[C@H](OC)[C@@H](C)C(=O)NC(Cc1ccccc1)C(=O)O)OC)N(C)C(=O)[C@@H](NC(=O)[C@H](C(C)C)N(C)C(=O)OCc1ccc(O[C@@H]2O[C@H](CO)[C@H](O)[C@H](O)[C@H]2O)c2cc(C(=O)O)oc12)C(C)C` (some centres unmarked) [Compound A-24] (X4-[NMeV]V[Dil(5ξ)][Dolaproine][ξF]-OH), the half-life at 100 µM in series [1] was above 168 h.

Regarding `CC[C@H](C)[C@@H]([C@@H](CC(=O)N1CCC[C@H]1[C@H](OC)[C@@H](C)C(=O)N[C@H](C)[C@@H](O)c1ccccc1)OC)N(C)C(=O)[C@@H](NC(=O)[C@H](C(C)C)N(C)C(=O)OCc1ccc(O[C@@H]2O[C@H](CO)[C@H](O)[C@H](O)[C@H]2O)c2cc(CCC(=O)NCCOCCOCCOCCN=[N+]=[N-])oc12)C(C)C` [Compound A-25], the half-life at 100 µM in series [1] was above 168 h. Besides, the half-life at 300 µM in series [2] and in series [3] was above 168 h in each case.

`C#CCOCCOCCOCCOCC(=O)NCc1cc2c(O[C@@H]3O[C@H](CO)[C@H](O)[C@H](O)[C@H]3O)ccc(COC(=O)N(C)[C@H](C(=O)N[C@H](C(=O)N(C)[C@@H](C(C)CC)[C@@H](CC(=O)N3CCC[C@H]3[C@H](OC)[C@@H](C)C(=O)NC(Cc3ccccc3)C(=O)O)OC)C(C)C)C(C)C)c2o1` (some centres unmarked) [Compound A-28]: the half-life at 100 µM in series [1] was above 168 h.

For the compound `CCC(C)[C@@H]([C@@H](CC(=O)N1CCC[C@H]1[C@H](OC)[C@@H](C)C(=O)NC(Cc1ccccc1)C(=O)O)OC)N(C)C(=O)[C@@H](NC(=O)[C@H](C(C)C)N(C)C(=O)OCc1ccc(O[C@@H]2O[C@H](CO)[C@H](O)[C@H](O)[C@H]2O)c2cc(C(=O)O)[se]c12)C(C)C` (some centres unmarked) [Compound A-29] (X3-[NMeV]V[Dil(5ξ)][Dolaproine][ξF]-OH), in series [1], the half-life at 100 µM was above 168 h.

For the compound `CC[C@H](C)[C@@H]([C@@H](CC(=O)N1CCC[C@H]1[C@H](OC)[C@@H](C)C(=O)N[C@H](C)[C@@H](O)c1ccccc1)OC)N(C)C(=O)[C@@H](NC(=O)[C@H](C(C)C)N(C)C(=O)OCc1ccc(O[C@@H]2O[C@H](C(=O)O)[C@@H](O)[C@H](O)[C@H]2O)c2cc(Cn3cc(COCCOCCOCCOC)nn3)[se]c12)C(C)C` [Compound A-69], in series [1], the half-life at 100 µM was above 168 h. In addition, the half-life at 300 µM in series [2], in series [4], in series [3] and in series [5] was above 168 h in each case.

(Values after patent US12576156B2, “Compound comprising self-immolative group and ligand-drug conjugate comprising same” (priority 2022, dated 2026).)
